Target: T1, Recombinant Human SSAO/VAP-1/AOC3 (Homo sapiens, UniProt Q16853)
T1 construct: purchased R&D systems 3957-AO
T1 sequence (Q16853 1-763): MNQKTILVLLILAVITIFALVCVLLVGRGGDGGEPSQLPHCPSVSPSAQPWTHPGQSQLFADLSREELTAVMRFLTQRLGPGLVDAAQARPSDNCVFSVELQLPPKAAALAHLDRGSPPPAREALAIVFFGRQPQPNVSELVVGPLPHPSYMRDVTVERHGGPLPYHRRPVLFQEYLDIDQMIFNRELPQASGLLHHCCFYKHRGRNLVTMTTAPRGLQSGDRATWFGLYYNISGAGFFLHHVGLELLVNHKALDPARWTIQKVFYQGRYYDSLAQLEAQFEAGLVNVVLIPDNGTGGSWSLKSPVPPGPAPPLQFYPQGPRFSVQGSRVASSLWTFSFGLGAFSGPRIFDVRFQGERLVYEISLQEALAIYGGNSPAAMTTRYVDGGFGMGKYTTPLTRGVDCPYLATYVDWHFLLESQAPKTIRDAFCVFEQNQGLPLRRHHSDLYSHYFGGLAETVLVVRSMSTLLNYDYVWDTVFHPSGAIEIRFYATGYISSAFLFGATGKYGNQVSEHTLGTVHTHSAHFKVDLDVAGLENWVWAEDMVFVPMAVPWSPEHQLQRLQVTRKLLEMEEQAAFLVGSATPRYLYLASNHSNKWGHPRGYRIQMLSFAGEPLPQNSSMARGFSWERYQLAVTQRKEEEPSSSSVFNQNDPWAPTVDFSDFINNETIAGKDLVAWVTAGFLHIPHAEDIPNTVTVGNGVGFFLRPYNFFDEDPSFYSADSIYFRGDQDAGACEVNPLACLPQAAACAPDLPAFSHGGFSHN
Assay: Human Semicarbazide-Sensitive Amine Oxidase (SSAO) Assay
Format: biochemical
Conditions: recombinant enzyme; 30 minutes preincubation at 37° C.; benzylamine substrate; Amplex Ultra Red/HRP fluorescence
Description: Example B-1: Human Semicarbazide-Sensitive Amine Oxidase (SSAO) Assay
Compounds were dissolved in DMSO to provide a Concentration Response Curve (CRC; at 500 times the final concentration) over a range of 6-10 dilutions.
Recombinant Human SSAO/VAP-1/AOC3 (R&D systems; Catalog #3957-AO) was used to screen compound potency in vitro, according to previously described methods (J Pharmacol Exp Ther. 2013 November; 347(2):365-74). SSAO enzyme was suspended in 50 mM HEPES buffer to a working concentration of 2.5 μg/ml and 40 μL of this enzyme mixture was then added to each well of a F16 Black Maxisorp 96 well Plate (Nunc, Catalog #475515). Ten microliters of each test compound (at 5 times the final concentration) were added to each well, resulting in a final well volume of 50 μL of the enzyme and inhibitor mixture. The compounds were preincubated with the enzyme for 30 minutes at 37° C., prior to the addition of a 40 μL volume of Amplex Ultra Red (125 uM AUR; Molecular Probes, Catalog #A36006)/Horseradish peroxidase (2.5 U/ml HRP; Sigma-Aldrich Catalog #P8375) oxidase detection reagent containing cytochrome C (7.5 μM; Sigma-Aldrich Catalog #C7752). Cytochrome C was included in the AUR/HRP detection mixture to reduce the background fluorescence that can occur via the spontaneous redox reaction between AUR and HRP. The SSAO enzyme reaction was then initiated by adding 10 μL of the SSAO substrate, benzylamine (Sigma-Aldrich Catalog #B5136), and SSAO activity was measured in kinetic mode over a 30-120 minute sampling period (excit. 544 nm; emit 590 nm; cut off 570 nm; medium gain) to obtain IC50 values for enzyme activity in each treatment well.

IC50 | Compound
≤ 10 nM | COCCO[C@H]1CC[C@H](NC(=O)C23CCC(c4ccc(OC/C(=C/F)CN)cc4)(CC2)CC3)CC1 [Compound 2.142, 4-(4-(((E)-2-(aminomethyl)-3-fluoroallyl)oxy)phenyl)-N-((1r,4r)-4-(2-methoxyethoxy)cyclohexyl)bicyclo [2.2.2]octane-1-carboxamide]
≤ 10 nM | NC/C(=C\F)COc1ccc(C23CCC(C(=O)NC4(C(F)(F)F)CCOCC4)(CC2)CC3)cc1 [Compound 2.152, (E)-4-(4-((2-(aminomethyl)-3-fluoroallyl)oxy)phenyl)-N-(4-(trifluoromethyl)tetrahydro-2H-pyran-4-yl)bicyclo[2.2.2]octane-1-carboxamide]
≤ 10 nM | CO[C@H]1CC[C@H](NC(=O)C23CC(c4ccc(OC/C(=C/F)CN)cc4)(C2)C3)CC1 [Compound 3.04, 3-(4-(((E)-2-(aminomethyl)-3-fluoroallyl)oxy)phenyl)-N-((1r,4r)-4-methoxycyclohexyl)bicyclo[1.1.1] pentane-1-carboxamide]

Second part, the compound before the results:

Compound | IC50
COC1(CNC(=O)C23CCC(c4ccc(OC/C(=C/F)CN)cc4)(CC2)CC3)CCCCC1 [Compound 2.102, (E)-4-(4-((2-(aminomethyl)-3-fluoroallyl)oxy)phenyl)-N-((1-methoxycyclohexyl)methyl) bicyclo[2.2.2]octane-1-carboxamide] | ≤ 10 nM
CO[C@H]1CC[C@H](NC(=O)C23CCC(c4ccc(OC/C(=C/F)CN)cc4)(CC2)CC3)CC1 [Compound 2.104, 4-(4-(((E)-2-(aminomethyl)-3-fluoroallyl)oxy)phenyl)-N-((1r,4r)-4-methoxycyclohexyl)bicyclo[2.2.2] octane-1-carboxamide] | ≤ 10 nM
CC(C)(C)O[C@H]1C[C@@H](NC(=O)C23CCC(c4ccc(OC/C(=C/F)CN)cc4)(CC2)CC3)C1 [Compound 2.149, 4-(4-(((E)-2-(aminomethyl)-3-fluoroallyl)oxy)phenyl)-N-((1s,3s)-3-(tert-butoxy)cyclobutyl)bicyclo[2.2.2] octane-1-carboxamide] | ≤ 10 nM
